This is an account of results in patent US20230081390A1, “INHIBITORS OF RAF KINASES” (Kinnate Biopharma Inc., priority 2019, published 2023).

This assay concerns the target human RAF1 (Homo sapiens, UniProt P04049). The assay can be described thus: Protein kinase assay (33P-ATP filter binding), human RAF1, 10-dose IC50. The format is biochemical. The note with it: MEK1 (K97R) substrate 3 micromolar, ATP 10 micromolar, read-out: RAF-1 IC50. Here is the method:
In brief, for each reaction, kinase and substrate were mixed in a buffer containing 20 mM HEPES (pH 7.5), 10 mM MgCl2, 1 mM EGTA, 0.02% Brij35, 0.02 mg/mL BSA, 0.1 mM Na3VO4, 2 mM DTT, and […]. All compounds were solubilized in DMSO. Compounds were then added to each reaction mixture via acoustic dispense using an ECHO 550 nanoliter dispenser. For human RAF1 testing, human MEK1 (K97R) was used as a substrate at a concentration of 3 micromolar, with a final ATP concentration of 10 micromolar. […] Reactions were carried out at room temperature for 2 hr and spotted onto P81 ion exchange cellulose chromatography paper (Reaction Biology). […] The percent remaining kinase activity relative to a vehicle-containing (DMSO) kinase reaction was calculated for each kinase/inhibitor pair. IC50 values were calculated using Prism 5 (GraphPad).

pIC50: −log10 of the molar value.

Chain of human RAF1 (P04049 whole entry): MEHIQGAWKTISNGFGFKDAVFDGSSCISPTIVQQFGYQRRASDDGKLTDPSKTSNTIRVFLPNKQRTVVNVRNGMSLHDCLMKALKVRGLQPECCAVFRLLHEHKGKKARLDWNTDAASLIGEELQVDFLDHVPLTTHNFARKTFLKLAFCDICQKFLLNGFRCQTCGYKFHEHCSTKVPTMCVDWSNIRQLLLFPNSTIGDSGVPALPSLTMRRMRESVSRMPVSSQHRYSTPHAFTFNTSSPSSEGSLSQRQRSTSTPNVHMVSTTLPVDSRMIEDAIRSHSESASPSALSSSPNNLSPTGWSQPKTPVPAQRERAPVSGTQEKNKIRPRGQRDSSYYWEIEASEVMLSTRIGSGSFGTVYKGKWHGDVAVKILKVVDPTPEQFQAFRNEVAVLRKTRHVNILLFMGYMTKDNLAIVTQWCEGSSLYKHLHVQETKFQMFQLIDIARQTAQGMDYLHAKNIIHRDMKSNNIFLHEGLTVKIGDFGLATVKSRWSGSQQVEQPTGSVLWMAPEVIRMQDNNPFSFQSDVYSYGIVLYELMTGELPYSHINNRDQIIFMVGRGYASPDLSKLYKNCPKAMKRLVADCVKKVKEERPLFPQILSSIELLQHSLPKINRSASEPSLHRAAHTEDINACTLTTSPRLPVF

Take `Cc1cc(F)c(NC(=O)N2C[C@H](CF)[C@@H](C(F)(F)F)C2)cc1-c1cc(OCCO)nc(N2CCOCC2)c1` (relative stereo) [Example 39, (trans)-N-[2-fluoro-5-[2-(2-hydroxyethoxy)-6-(morpholin-4-yl)pyridin-4-yl]-4-methylphenyl]-3-(fluoromethyl)-4-(trifluoromethyl) pyrrolidine-1-carboxamide]: the pIC50 – broadly, −log10 of the IC50, conventionally taken in molar units – is > 8.00.

For the molecule `Cc1ccc(NC(=O)N2CC[C@@H](C(F)(F)F)C2)cc1-c1cnc(OCCO)c(N2CCOCC2)c1` (single isomer, unassigned) [Example 14], the negative-log IC50 (pIC50) was > 8.00.

With `Cc1ccc(NC(=O)N2CC[C@H](C(F)(F)F)C2)cc1-c1cnc(OCCO)c(N2CCOCC2)c1` (single isomer, unassigned) [Example 15], the negative-log IC50 (pIC50) was > 8.00.

On to `Cc1ncc(NC(=O)N2CC[C@@H](C(F)(F)F)C2)cc1-c1cnc(OCCO)c(N2CCOCC2)c1` (single isomer, unassigned) [Example 16], for which the pIC50 was > 8.00.

Take `Cc1ncc(NC(=O)N2CC[C@H](C(F)(F)F)C2)cc1-c1cnc(OCCO)c(N2CCOCC2)c1` (single isomer, unassigned) [Example 17]: the pIC50 was > 8.00.

`Cc1cc(F)c(NC(=O)N2CC[C@@H](C(F)(F)F)C2)cc1-c1cc(OCCO)nc(N2CCOC[C@H]2C)c1` (single isomer, unassigned) [Example 29]: the negative logarithm of the IC50 (pIC50) is > 8.00.

Consider `Cc1cc(F)c(NC(=O)N2CC[C@H](C(F)(F)F)C2)cc1-c1cc(OCCO)nc(N2CCOC[C@H]2C)c1` (single isomer, unassigned) [Example 30], for which the negative-log IC50 (pIC50) is > 8.00.

`Cc1cc(F)c(NC(=O)N2CC[C@@H](C(F)(F)F)C2)cc1-c1cnc(OC2CCOCC2)c(N2CCOCC2)c1` (single isomer, unassigned) [Example 31]: the pIC50 is > 8.00.

With `Cc1cc(F)c(NC(=O)N2CC[C@H](C(F)(F)F)C2)cc1-c1cnc(OC2CCOCC2)c(N2CCOCC2)c1` (single isomer, unassigned) [Example 32], the pIC50 was > 8.00.

`Cc1cc(F)c(NC(=O)N2CC[C@H](C(C)(F)F)C2)cc1-c1cc(OCCO)nc(N2CCOCC2)c1` (single isomer, unassigned) [Example 33]: the pIC50 was > 8.00.

As for `Cc1cc(F)c(NC(=O)N2CC[C@@H](C(C)(F)F)C2)cc1-c1cc(OCCO)nc(N2CCOCC2)c1` (single isomer, unassigned) [Example 34], the pIC50 is > 8.00.

In the case of `Cc1cc(F)c(NC(=O)N2CC[C@H](C3CC3)C2)cc1-c1cc(OCCO)nc(N2CCOCC2)c1` (single isomer, unassigned) [Example 47], the negative logarithm of the IC50 (pIC50) is > 8.00.

As for `Cc1cc(F)c(NC(=O)N2CC[C@@H](C3CC3)C2)cc1-c1cc(OCCO)nc(N2CCOCC2)c1` (single isomer, unassigned) [Example 48], the pIC50 was > 8.00.

Take `Cc1cc(F)c(NC(=O)N2C[C@@H]3C[C@]3(C(F)(F)F)C2)cc1-c1cc(OCCO)nc(N2CCOCC2)c1` (single isomer, unassigned) [Example 50]: the pIC50 is > 8.00.

Take `Cc1cc(F)c(NC(=O)N2C[C@H]3C[C@@]3(C(F)(F)F)C2)cc1-c1cc(OCCO)nc(N2CCOCC2)c1` (single isomer, unassigned) [Example 51]: the pIC50 was > 8.00.

Turning to `Cc1cc(F)c(NC(=O)N2CC(C)C(C(F)(F)F)C2)cc1-c1cc(OCCO)nc(N2CCOCC2)c1` (single isomer, unassigned) [Example 52, N-[2-fluoro-5-[2-(2-hydroxyethoxy)-6-(morpholin-4-yl)pyridin-4-yl]-4-methylphenyl]-3-methyl-4-(trifluoromethyl)pyrrolidine-1-carboxamide], the pIC50 is > 8.00.

As for `Cc1cc(F)c(NC(=O)N2CC(C)C(C(F)(F)F)C2)cc1-c1cc(OCCO)nc(N2CCOCC2)c1` (single isomer, unassigned) [Example 53, N-[2-fluoro-5-[2-(2-hydroxyethoxy)-6-(morpholin-4-yl)pyridin-4-yl]-4-methylphenyl]-3-methyl-4-(trifluoromethyl)pyrrolidine-1-carboxamide], the pIC50 was > 8.00.

Consider `Cc1cc(F)c(NC(=O)N2CCO[C@@H](C(C)(F)F)C2)cc1-c1cc(OCCO)nc(N2CCOCC2)c1` (single isomer, unassigned) [Example 58], for which the pIC50 is > 8.00.

With `Cc1cc(F)c(NC(=O)N2CCO[C@@H](C(C)(F)F)C2)cc1-c1cc(OCCO)nc(N2CCOCC2)c1` (single isomer, unassigned) [Example 59], the negative logarithm of the IC50 (pIC50) was > 8.00.

On to `Cc1cc(F)c(NC(=O)N2C[C@H](C(F)(F)F)C[C@@H]2C)cc1-c1cc(OCCO)nc(N2CCOCC2)c1` (single isomer, unassigned) [Example 60, (cis)-N-[2-fluoro-5-[2-(2-hydroxyethoxy)-6-(morpholin-4-yl)pyridin-4-yl]-4-methylphenyl]-2-methyl-4-(trifluoromethyl)pyrrolidine-1-carboxamide], for which the pIC50 is > 8.00.

In the case of `Cc1cc(F)c(NC(=O)N2C[C@H](C(F)(F)F)C[C@@H]2C)cc1-c1cc(OCCO)nc(N2CCOCC2)c1` (single isomer, unassigned) [Example 61, (cis)-N-[2-fluoro-5-[2-(2-hydroxyethoxy)-6-(morpholin-4-yl)pyridin-4-yl]-4-methylphenyl]-2-methyl-4-(trifluoromethyl)pyrrolidine-1-carboxamide], the pIC50 is > 8.00.

In the case of `Cc1cc(F)c(NC(=O)N2CC[C@]3(C2)CC3(F)F)cc1-c1cc(OCCO)nc(N2CCOCC2)c1` (single isomer, unassigned) [Example 62], the negative logarithm of the IC50 (pIC50) was > 8.00.

In the case of `Cc1cc(F)c(NC(=O)N2CC[C@@]3(C2)CC3(F)F)cc1-c1cc(OCCO)nc(N2CCOCC2)c1` (single isomer, unassigned) [Example 63], the pIC50 was > 8.00.

Take `Cc1cc(F)c(NC(=O)N2CCC(C(F)(F)F)C2C)cc1-c1cc(OCCO)nc(N2CCOCC2)c1` (single isomer, unassigned) [Example 64, N-[2-fluoro-5-[2-(2-hydroxyethoxy)-6-(morpholin-4-yl)pyridin-4-yl]-4-methylphenyl]-2-methyl-3-(trifluoromethyl)pyrrolidine-1-carboxamide]: the pIC50 is 6.00 to 7.00.

Take `Cc1cc(F)c(NC(=O)N2CCC(C(F)(F)F)C2C)cc1-c1cc(OCCO)nc(N2CCOCC2)c1` (single isomer, unassigned) [Example 65, N-[2-fluoro-5-[2-(2-hydroxyethoxy)-6-(morpholin-4-yl)pyridin-4-yl]-4-methylphenyl]-2-methyl-3-(trifluoromethyl)pyrrolidine-1-carboxamide]: the pIC50 was 7.00 to 8.00.

Consider `Cc1cc(F)c(NC(=O)N2CCC(C(F)(F)F)C2C)cc1-c1cc(OCCO)nc(N2CCOCC2)c1` (single isomer, unassigned) [Example 66, N-[2-fluoro-5-[2-(2-hydroxyethoxy)-6-(morpholin-4-yl)pyridin-4-yl]-4-methylphenyl]-2-methyl-3-(trifluoromethyl)pyrrolidine-1-carboxamide], for which the negative logarithm of the IC50 (pIC50) was > 8.00.

Regarding `Cc1cc(F)c(NC(=O)N2CCC(C(F)(F)F)C2C)cc1-c1cc(OCCO)nc(N2CCOCC2)c1` (single isomer, unassigned) [Example 67, N-[2-fluoro-5-[2-(2-hydroxyethoxy)-6-(morpholin-4-yl)pyridin-4-yl]-4-methylphenyl]-2-methyl-3-(trifluoromethyl)pyrrolidine-1-carboxamide], the pIC50 was > 8.00.

On to `Cc1cc(F)c(NC(=O)N2CCC3C2C3C(F)(F)F)cc1-c1cc(OCCO)nc(N2CCOCC2)c1` (single isomer, unassigned) [Example 68, N-[2-fluoro-5-[2-(2-hydroxyethoxy)-6-(morpholin-4-yl)pyridin-4-yl]-4-methylphenyl]-6-(trifluoromethyl)-2-azabicyclo[3.1.0]hexane-2-carboxamide], for which the pIC50 was > 8.00.

Consider `Cc1cc(F)c(NC(=O)N2CCC3C2C3C(F)(F)F)cc1-c1cc(OCCO)nc(N2CCOCC2)c1` (single isomer, unassigned) [Example 69, N-[2-fluoro-5-[2-(2-hydroxyethoxy)-6-(morpholin-4-yl)pyridin-4-yl]-4-methylphenyl]-6-(trifluoromethyl)-2-azabicyclo[3.1.0]hexane-2-carboxamide], for which the pIC50 is > 8.00.

As to `Cc1cc(F)c(NC(=O)N2CCC3C2C3C(F)(F)F)cc1-c1cc(OCCO)nc(N2CCOCC2)c1` (single isomer, unassigned) [Example 70, N-[2-fluoro-5-[2-(2-hydroxyethoxy)-6-(morpholin-4-yl)pyridin-4-yl]-4-methylphenyl]-6-(trifluoromethyl)-2-azabicyclo[3.1.0]hexane-2-carboxamide], the negative-log IC50 (pIC50) is 7.00 to 8.00.

With `Cc1cc(F)c(NC(=O)N2CCC3C2C3C(F)(F)F)cc1-c1cc(OCCO)nc(N2CCOCC2)c1` (single isomer, unassigned) [Example 71, N-[2-fluoro-5-[2-(2-hydroxyethoxy)-6-(morpholin-4-yl)pyridin-4-yl]-4-methylphenyl]-6-(trifluoromethyl)-2-azabicyclo[3.1.0]hexane-2-carboxamide], the pIC50 is 6.00 to 7.00.

With `Cc1cc(F)c(NC(=O)N2CC[C@H](CC(F)(F)F)C2)cc1-c1cc(OCCO)nc(N2CCOCC2)c1` (single isomer, unassigned) [Example 74], the pIC50 was > 8.00.

As to `Cc1cc(F)c(NC(=O)N2CC[C@@H](CC(F)(F)F)C2)cc1-c1cc(OCCO)nc(N2CCOCC2)c1` (single isomer, unassigned) [Example 75], the pIC50 was > 8.00.

Take `Cc1cc(F)c(NC(=O)N2CC[C@@H](OC(F)(F)F)C2)cc1-c1cc(OCCO)nc(N2CCOCC2)c1` (single isomer, unassigned) [Example 77]: the negative-log IC50 (pIC50) was > 8.00.
